Assay results reported in patent publication US4221781A, “Synergistic penicillin-cephalosporin compositions and methods” (priority 1971, dated 1980).
Like-named read-outs stand apart in the source and are kept apart here.

Columns and labels:
[1] = test system: clinically isolated coliform bacterium; assay: Example 5: in vitro M.I.C. of IV, various penicillins and 1:1 combinations; format: cell-based
Method: (§1) Tryptose phosphate broth, containing the appropriate concentrations of the compounds or of the combination of them, was inoculated with 0.5×10^4 -5×10^4 organisms of the various microorganisms tested and incubated overnight at 37° C. Minimum inhibitory concentrations (M.I.C.) were taken as the concentrations of the compounds or of the combination at which no visible growth occurred.
Using the same technique as described in Example 1 the in vitro activity of 6[(piperidyl-1)-methyleneamino]-penicillianic acid (IV), of various penicillins, and of 1:1 combinations of IV with these penicillins, was determined against a clinically isolated coliform bacterium.

[2] = test system: Klebsiella-Enterobacter (strain 4/71); assay: Example 10: in vitro M.I.C. of II, cephalosporins and 1:1 combinations; format: cell-based; conditions: Klebsiella-Enterobacter strain 4/71; read-out: M.I.C.
Method: as §1
(§2) Using the same technique as described in Example 1 the in vitro activity of 6-[(hexahydro-1H-azepin-1-yl)methyleneamino]penicillanic acid (II), of various cephalosporins previously mentioned in this specification, and of 1:1 combinations of II with these cephalosporins was determined against a clinically isolated strain of Klebsiella-Enterobacter (strain 4/71)

[3] = test system: Proteus (Proteus Mirabilis I 190); assay: Example 11: in vitro M.I.C. of II, cephalosporins and 1:1 combinations; format: cell-based; conditions: Proteus Mirabilis I 190, read-out: M.I.C.
Method: as §1
as §2, with “cephalosporins” for “cephalosporins previously mentioned in this specification,”, “Proteus (Proteus Mirabilis I 190).” for “Klebsiella-Enterobacter (strain 4/71)”

Coliform [4] = assay: Example 4: in vitro M.I.C., serial dilution test, coliforms; format: cell-based
Method: as §1

Proteus [5] = assay: Example 4: in vitro M.I.C., serial dilution test, Proteus; format: cell-based
Method: as §1

Klebsiella-Enterobacter [6] = assay: Example 4: in vitro M.I.C., serial dilution test, Klebsiella-Enterobacter; format: cell-based
Method: as §1

E.coli III [7] = assay: Example 6: emergence of resistance, subculturing by serial twofold broth dilution; format: cell-based; conditions: Escherichia coli
Method: Subculturing using a serial twofold broth dilution technique was performed with 6-(D-α-amino-phenylacetamido)-penicillanic acid (I), 6-[(piperidyl-1)methyleneamino]penicillanic acid (IV) and a 1:1 combination of I+IV. As inocula were used bacteria from the tube with the highest concentration of compound still permitting visible growth to the naked eye after incubation at 37° C. overnight. The following increases in MIC-values were noted.

Coliform [8] = assay: Example 1: in vitro M.I.C., serial dilution test, coliforms; format: cell-based; conditions: 37° C overnight
Method: as §1

Proteus mirabilis = assay: Example 1: in vitro M.I.C., serial dilution test, Proteus mirabilis; format: cell-based; conditions: Proteus mirabilis strain 35895; 37° C overnight
Method: as §1

Proteus vulgaris = assay: Example 1: in vitro M.I.C., serial dilution test, Proteus vulgaris; format: cell-based
Method: as §1

Proteus [9] = assay: Example 1: in vitro M.I.C., serial dilution test, Proteus; format: cell-based; conditions: 37° C overnight
Method: as §1

E.coli III [10] = assay: Example 3: in vivo activity, mean curative dose in mice infected with E.coli III; design: species or system female NMRI white mice; conditions: Escherichia coli, sc, 96 h, subcutaneous, read-out: CD50 (mean curative dose)
Method: The number of deaths in the various groups were recorded after 96 hours and the mean curative doses (CD50) were calculated. (In the table, LD50 gives the dilution of an overnight culture of the organism causing a 50% death rate in animals receiving no therapy; the number of LD50 -doses records the severity of the infections given to the animals.)

[11] = test system: clinically isolated coliform; assay: Example 7: emergence of resistance, subculturing by serial twofold broth dilution; format: cell-based
Method: Subculturing using a serial twofold broth dilution technique was performed with 6-(D-α-aminophenylacetamido)-penicillanic acid (I), 6-[(hexahydro-1H-azepin-1-yl)methyleneamino]penicillanic acid (II), and a 1:1 combination of I and II. The strain used was a clinically isolated coliform. As inocula were used bacteria from the tube with the highest concentration of compound still permitting visible growth to the naked eye after incubation at 37° C. overnight. The following increases in MIC values were noted.

Coliforma = assay: Example 9: in vitro MIC, serial dilution test, Coliforma; format: cell-based
Method: as §1
(§3) Using the technique described in Example 1 the in vitro effect of combinations of 6-(D-α-aminophenylacetamido)-penicillanic acid (I) and 6-[(N,N-diethylformamidino)-N'-amino]penicillanic acid (VII) in the ratios 1:1, 1:2 and 2:1 against clinically isolated strains of Coliforma, Klebsiella-Enterobacter and Proteus was determined in serial dilution tests.

Klebsiella-Enterobacter [12] = assay: Example 9: in vitro MIC, serial dilution test, Klebsiella-Enterobacter; format: cell-based
Method: as §1, §3

Proteus [13] = assay: Example 9: in vitro MIC, serial dilution test, Proteus; format: cell-based
Method: as §1, §3

[14] = Proteus strain 6/70, read-out: M.I.C.
[15] = Klebsiella-Enterobacter strain 2/70, read-out: M.I.C.
[16] = Klebsiella-Enterobacter strain 8, read-out: MIC

`CC1(C)S[C@@H]2[C@H](NC(=O)Cc3ccccc3)C(=O)N2[C@H]1C(=O)O` [benzylpenicillin] showed an MIC [1] of 25 µg/mL.

`O=C(Cc1cccs1)N[C@@H]1C(=O)N2C(C(=O)[O-])=C(C[n+]3ccccc3)CS[C@H]12` [Cephaloridine] was tested, and the MIC [2] was 25 µg/mL and the MIC [3] was 6.25 µg/mL.

`CC1(C)S[C@@H]2[C@H](N=CN3CCCCC3)C(=O)N2[C@H]1C(=O)O` [IV, 6-[(piperidyl-1)-methyleneamino]penicillanic acid] was tested, and the MIC (Coliform [4]; Coliform strain 7/70) was 1.56 µg/mL, the MIC (Coliform [4]; Coliform strain 16/70) was 1.56 µg/mL and the MIC (Coliform [4]; Coliform strain 17/70) was 1.56 µg/mL. For the same compound, the MIC (Proteus [5]; Proteus strain 4/70, read-out: M.I.C.) was 25 µg/mL, the MIC (Proteus [5]; [14]) was 3.12 µg/mL and the MIC (Proteus [5]; Proteus strain 7/70, read-out: M.I.C.) was 50 µg/mL. The MIC (Proteus [5]; Proteus strain 9/70, read-out: M.I.C.) was 100 µg/mL, the MIC (Proteus [5]; Proteus strain 10/70, read-out: M.I.C.) was 25 µg/mL and the MIC (Klebsiella-Enterobacter [6]; Klebsiella-Enterobacter strain 1/70, read-out: M.I.C.) was over 100 µg/mL. The MIC (Klebsiella-Enterobacter [6]; [15]) was 12.5 µg/mL, the MIC (Klebsiella-Enterobacter [6]; Klebsiella-Enterobacter strain 5/70, read-out: M.I.C.) was over 100 µg/mL and the MIC (Klebsiella-Enterobacter [6]; Klebsiella-Enterobacter strain 7/70, read-out: M.I.C.) was over 100 µg/mL. It also gave an MIC (Klebsiella-Enterobacter [6]; Klebsiella-Enterobacter strain 9/70, read-out: M.I.C.) of 3.12 µg/mL, an MIC (Klebsiella-Enterobacter [6]; Klebsiella-Enterobacter strain 10/70, read-out: M.I.C.) of over 100 µg/mL and an MIC (Klebsiella-Enterobacter [6]; Klebsiella-Enterobacter strain 431, read-out: M.I.C.) of over 100 µg/mL. The MIC [1] was 6.25 µg/mL, the MIC (E.coli III [7]; passage 0) was 0.78 µg/mL and the MIC (E.coli III [7]; passage 1) was 6.25 µg/mL. The MIC (E.coli III [7]; passage 2) was 6.28 µg/mL, the MIC (E.coli III [7]; passage 3) was 25 µg/mL and the MIC (E.coli III [7]; passage 4) was 25 µg/mL. The MIC (E.coli III [7]; passage 5) was 25 µg/mL and the MIC (E.coli III [7]; passage 6) was 25 µg/mL.

`CC1(C)S[C@@H]2[C@H](NC(=O)C(C(=O)O)c3ccccc3)C(=O)N2[C@H]1C(=O)O` (stereo partly drawn) [α-carboxybenzylpenicillin] showed an MIC [1] of 12.5 µg/mL.

Work on `CC1(C)S[C@@H]2[C@H](NC(=O)[C@H](N)c3ccccc3)C(=O)N2[C@H]1C(=O)O` [I, 6-(D-α-aminophenylacetamido)penicillanic acid] yielded an MIC (Coliform [8]; Coliform strain 3/70) of 1.56 µg/mL, an MIC (Coliform [8]; Coliform strain 9/70) of 3.12 µg/mL and an MIC (Coliform [8]; Coliform strain 10/70) of 3.12 µg/mL. The MIC (Coliform [8]; Coliform strain 17/70) was 3.12 µg/mL, the MIC (Proteus mirabilis) was 25 µg/mL and the MIC (Proteus vulgaris) was 50 µg/mL. The MIC (Proteus vulgaris; Proteus vulgaris A, 37° C overnight, read-out: M.I.C.) was 0.78 µg/mL, the MIC (Proteus [9]; Proteus strain 12/70) was 100 µg/mL and the MIC (Proteus [9]; Proteus strain 13/70) was 100 µg/mL. The MIC (Proteus [9]; Proteus strain 20/70) was over 100 µg/mL, the ED50 (E.coli III [10]; LD50 1.5·10^-3, 6.6 LD50-doses given) was 5.5 mg/kg and the ED50 (E.coli III [10]; LD50 8.1·10^-4, 1.2·10^4 LD50-doses given) was 250 mg/kg. The MIC (Proteus [5]; Proteus strain 4/70) was 1.56 µg/mL, the MIC (Proteus [5]; [14]) was 0.39 µg/mL and the MIC (Proteus [5]; Proteus strain 7/70) was 1.56 µg/mL. It also gave an MIC (Proteus [5]; Proteus strain 9/70) of 6.25 µg/mL, an MIC (Proteus [5]; Proteus strain 10/70) of 1.56 µg/mL and an MIC (Klebsiella-Enterobacter [6]; Klebsiella-Enterobacter strain 1/70) of 50 µg/mL. For the same compound, the MIC (Klebsiella-Enterobacter [6]; [15]) was 25 µg/mL, the MIC (Klebsiella-Enterobacter [6]; Klebsiella-Enterobacter strain 5/70) was 100 µg/mL and the MIC (Klebsiella-Enterobacter [6]; Klebsiella-Enterobacter strain 7/70) was over 100 µg/mL. It also gave an MIC (Klebsiella-Enterobacter [6]; Klebsiella-Enterobacter strain 9/70) of 50 µg/mL, an MIC (Klebsiella-Enterobacter [6]; Klebsiella-Enterobacter strain 10/70) of 50 µg/mL and an MIC (Klebsiella-Enterobacter [6]; Klebsiella-Enterobacter strain 431) of 100 µg/mL. The MIC (E.coli III [7]; passage 0) was 1.56 µg/mL, the MIC (E.coli III [7]; passage 1) was 6.25 µg/mL and the MIC (E.coli III [7]; passage 2) was 25 µg/mL. It also gave an MIC (E.coli III [7]; passage 3) of 50 µg/mL, an MIC (E.coli III [7]; passage 4) of 50 µg/mL and an MIC (E.coli III [7]; passage 5) of 100 µg/mL. It also gave an MIC (E.coli III [7]; passage 6) of 100 µg/mL, an MIC ([11]; passage 7) of 12.5 µg/mL and an MIC ([11]; passage 8) of 12.5 µg/mL. The MIC (Coliforma; Coliforma strain 1) was 1.56 µg/mL, the MIC (Coliforma; Coliforma strain 4) was 3.12 µg/mL and the MIC (Coliforma; Coliforma strain 7) was 1.56 µg/mL. For the same compound, the MIC (Coliforma; Coliforma strain 13) was 3.12 µg/mL, the MIC (Coliforma; Coliforma strain 16) was 3.12 µg/mL and the MIC (Klebsiella-Enterobacter [12]; Klebsiella-Enterobacter strain 1) was 50 µg/mL. It also gave an MIC (Klebsiella-Enterobacter [12]; Klebsiella-Enterobacter strain 5) of 100 µg/mL, an MIC (Klebsiella-Enterobacter [12]; Klebsiella-Enterobacter strain 7) of over 100 µg/mL and an MIC (Klebsiella-Enterobacter [12]; [16]) of 25 µg/mL. The MIC (Proteus [13]) was 3.12 µg/mL.

Compound `CC(=O)OCC1=C(C(=O)O)N2C(=O)C(NC(=O)CSc3ccccc3)C2SC1` (centres unmarked) [EPC 825/1] has an MIC [2] of over 100 µg/mL and an MIC [3] of 25 µg/mL.

With `CC(=O)OCC1=C(C(=O)O)N2C(=O)C(NC(=O)Cc3ccccc3)C2SC1` (centres unmarked) [EPC 807 2/b] the MIC [2] was over 100 µg/mL and the MIC [3] was 25 µg/mL.

With `CCN(C=NC1C(=O)N2C1SC(C)(C)C2C(=O)O)CC` (centres unmarked) [VII, 6-[(N,N-diethylformamidino)-N'-amino]penicillanic acid] the MIC (Coliforma; Coliforma strain 1) was 3.12 µg/mL, the MIC (Coliforma; Coliforma strain 4) was 3.12 µg/mL and the MIC (Coliforma; Coliforma strain 7) was 6.25 µg/mL. The MIC (Coliforma; Coliforma strain 16) was 6.25 µg/mL, the MIC (Klebsiella-Enterobacter [12]; Klebsiella-Enterobacter strain 1, read-out: MIC) was over 100 µg/mL and the MIC (Klebsiella-Enterobacter [12]; Klebsiella-Enterobacter strain 5, read-out: MIC) was over 100 µg/mL. It also gave an MIC (Klebsiella-Enterobacter [12]; Klebsiella-Enterobacter strain 7, read-out: MIC) of over 100 µg/mL, an MIC (Klebsiella-Enterobacter [12]; [16]) of 12.5 µg/mL and an MIC (Proteus [13]; Proteus strain 9, read-out: MIC) of 100 µg/mL.
